{
  "source": "ChEMBL document CHEMBL4043117",
  "about": "“Potential peptidic proteasome inhibitors by incorporation of an electrophilic trap based on amino acid derived α-substituted sulfonyl fluorides” (Bioorg Med Chem, 2017)",
  "key": {"Homo sapiens [1]": {"species": "Homo sapiens", "experiment": "Inhibition of human erythrocyte 20S proteasome at 0.002 to 400 uM using Suc-LLVY-AMC substrate incubated for 1 hr by fluorescence assay"}, "[2]": {"experiment": "Stability in PBS buffer at pH 8 assessed as half life for compound hydrolysis by HPLC method", "type": "physicochemical"}, "[3]": {"experiment": "Stability in PBS buffer at pH 7.4 assessed as half life for compound hydrolysis by HPLC method", "type": "physicochemical"}, "[4]": {"experiment": "Stability in PBS buffer at pH 6.5 assessed as half life for compound hydrolysis by HPLC method", "type": "physicochemical"}, "Homo sapiens [5]": {"species": "Homo sapiens", "experiment": "Inhibition of human erythrocyte 20S proteasome at 0.002 to 400 uM using compounds dissolved in 20% v/v DMSO in presence of Suc-LLVY-AMC substrate incubated for 1 hr by fluorescence assay"}},
  "note": "Calls of active or inactive are those of the source. The calls are words filed in the database; no cut-off is given here.",
  "data": [
    {"smiles": "CC(C)C[C@@H](CS(=O)(=O)F)NC(=O)[C@H](CC(C)C)NC(=O)[C@H](CC(C)C)NC(=O)OCc1ccccc1", "values": [
      {"measurement": "inhibition", "setting": "Homo sapiens [1]", "value": "Active"},
      {"measurement": "half-life", "setting": "[2]", "value": "10 to 12", "unit": "h"},
      {"measurement": "half-life", "setting": "[3]", "value": "10 to 12", "unit": "h"},
      {"measurement": "half-life", "setting": "[4]", "value": "10 to 12", "unit": "h"}
    ]},
    {"smiles": "CC(C)C[C@@H](CNC(=O)[C@H](CC(C)C)NC(=O)[C@H](CC(C)C)NC(=O)[C@H](CC(C)C)NC(=O)OCc1ccccc1)S(=O)(=O)F", "values": [
      {"measurement": "inhibition", "setting": "Homo sapiens [1]", "value": "inactive"},
      {"measurement": "half-life", "setting": "[2]", "value": "5 to 7", "unit": "h"},
      {"measurement": "half-life", "setting": "[3]", "value": "5 to 7", "unit": "h"},
      {"measurement": "half-life", "setting": "[4]", "value": "5 to 7", "unit": "h"},
      {"measurement": "inhibition", "setting": "Homo sapiens [5]", "value": "inactive"}
    ]},
    {"smiles": "CC(C)C[C@H](NC(=O)OCc1ccccc1)C(=O)N[C@@H](CC(C)C)C(=O)NC[C@H](Cc1ccccc1)S(=O)(=O)F", "values": [
      {"measurement": "inhibition", "setting": "Homo sapiens [1]", "value": "inactive"},
      {"measurement": "inhibition", "setting": "Homo sapiens [5]", "value": "inactive"}
    ]},
    {"smiles": "CC(C)C[C@H](NC(=O)OCc1ccccc1)C(=O)N[C@@H](CC(C)C)C(=O)N[C@@H](CC(C)C)C(=O)NC[C@H](Cc1ccccc1)S(=O)(=O)F", "values": [
      {"measurement": "inhibition", "setting": "Homo sapiens [1]", "value": "inactive"},
      {"measurement": "inhibition", "setting": "Homo sapiens [5]", "value": "inactive"}
    ]},
    {"smiles": "CC(C)C[C@@H](CNC(=O)[C@H](CC(C)C)NC(=O)[C@H](CC(C)C)NC(=O)OCc1ccccc1)S(=O)(=O)F", "values": [
      {"measurement": "inhibition", "setting": "Homo sapiens [1]", "value": "inactive"},
      {"measurement": "half-life", "setting": "[2]", "value": "5 to 7", "unit": "h"},
      {"measurement": "half-life", "setting": "[3]", "value": "5 to 7", "unit": "h"},
      {"measurement": "half-life", "setting": "[4]", "value": "5 to 7", "unit": "h"},
      {"measurement": "inhibition", "setting": "Homo sapiens [5]", "value": "inactive"}
    ]},
    {"smiles": "CC(C)C[C@@H](CNC(=O)[C@H](Cc1ccccc1)NC(=O)[C@H](CC(C)C)NC(=O)[C@H](CCc1ccccc1)NC(=O)CN1CCOCC1)S(=O)(=O)F", "values": [
      {"measurement": "inhibition", "setting": "Homo sapiens [1]", "value": "inactive"},
      {"measurement": "inhibition", "setting": "Homo sapiens [5]", "value": "inactive"}
    ]},
    {"smiles": "CC(C)C[C@@H](CS(=O)(=O)F)NC(=O)[C@H](CC(C)C)NC(=O)[C@H](CC(C)C)NC(=O)[C@H](CC(C)C)NC(=O)OCc1ccccc1", "values": [
      {"measurement": "inhibition", "setting": "Homo sapiens [1]", "value": "Active"},
      {"measurement": "half-life", "setting": "[2]", "value": "10 to 12", "unit": "h"},
      {"measurement": "half-life", "setting": "[3]", "value": "10 to 12", "unit": "h"},
      {"measurement": "half-life", "setting": "[4]", "value": "10 to 12", "unit": "h"}
    ]},
    {"smiles": "CC(C)C[C@H](NC(=O)[C@H](CCc1ccccc1)NC(=O)CN1CCOCC1)C(=O)N[C@@H](Cc1ccccc1)C(=O)NC[C@H](Cc1ccccc1)S(=O)(=O)F", "values": [
      {"measurement": "inhibition", "setting": "Homo sapiens [1]", "value": "inactive"},
      {"measurement": "inhibition", "setting": "Homo sapiens [5]", "value": "inactive"}
    ]}
  ]
}
